# Values quoted from earlier work in patent US7777053B2, “Efficient process for production of carvedilol phosphate” (Wanbury Limited, priority 2007, dated 2010).
# Structures can show the parent of a compound that is named as a salt. Where two headings read alike, the source gives them in different places.
SMILES,"solubility (neutral or alkaline media, above pH of 9.0)","saturation solubility (pH=5, room temperature)","saturation solubility (pH=7, room temperature)","aqueous solubility (as described in US 2005/0277689 A1, compared with carvedilol)"
"COc1ccccc1OCCNCC(O)COc1cccc2[nH]c3ccccc3c12 (stereo not shown) [Carvedilol, 1-(9H-carbazol-4yloxy)-3-[[2-(2-methoxyphenoxy)-ethyl]amino]-propan-2-ol]",< 1 µg/mL,about 100 μg/ml,about 23 μg/ml,
"COc1ccccc1OCCNCC(O)COc1cccc2[nH]c3ccccc3c12 (stereo not shown) [carvedilol phosphate, phosphate salts of 1-(9H-carbazol-4yloxy)-3-[[2-(2-methoxyphenoxy)ethyl]amino]-propan-2-ol]",,,,much higher aqueous solubility
